Source: US20030129224A1, “Lipid carrier compositions and methods for improved drug retention” (priority 2001, published 2003)
Values belong to the compound of their own block, whether it stands above or below them.

What was measured:
[1] = Daunorubicin retention 4 hours after intravenous injection, varying internal citrate; assay type: in vivo, Balb/c mice; details: DSPC/DSPE-PEG2000 (95:5); 100, 150 and 200 mM internal citrate (about 200, 300, 400 mOsm/kg), versus 250 and 300 mM; 4 hours after i.v.
Experimental: Daunorubicin was loaded at a 0.2:1 drug-to-lipid mole ratio with the methods detailed above into each of the five liposomal formulations. The resulting liposomes were administered to female Balb/c mice at a lipid dose of 165 μmoles/kg in a final volume of 200 μL immediately after preparation (within 1-2 hrs). Blood samples were removed 4 hours after administration by cardiac puncture (3 mice per time point). Lipid and daunorubicin levels were determined as described previously and percent initial drug-to-lipid ratio was reported as the mean±SD.

[2] = Daunorubicin retention in liposomes in blood after intravenous injection (time course); assay type: in vivo, Balb/c mice; details: low-cholesterol liposomes DSPC/DSPE-PEG2000 (95:5); citrate 600 mOsm/kg (300 mM) in relation to 300 mOsm/kg (150 mM); i.v.; 1, 4, 24 h
Experimental: DSPC/DSPE-PEG2000 liposomes (95:5 mole ratio) containing 150 or 300 mM citrate (300 or 600 mOsm/kg), pH 4 and DSPC/Cholesterol (55:45 mole ratio) and DSPC/Cholesterol/DSPE-PEG2000 (50:45:5 mole ratio) liposomes containing 150 mM citrate, pH 4 were prepared as described in Example 1. Liposomes were subsequently combined with daunorubicin at a 0.2:1 drug to lipid mole ratio. To facilitate drug loading, the mixtures were incubated at 40° C. for 60 minutes.
The resulting daunorubicin-containing liposomes were administered to Balb/c female mice at a lipid dose of 165 μmoles/kg as detailed above. Blood samples were removed at 1, 4 and 24 hours post administration by cardiac puncture (3 mice per time point). Lipid levels were determined by liquid scintillation counting. Daunorubicin was extracted from plasma samples and quantified as follows: a defined volume of plasma was adjusted to 200 μL with distilled water followed by addition of 600 μL of distilled water, 100 μL of 10% SDS and 100 μL of 10 mM H2SO4. This solution was mixed and 2 mLs of 1:1 isopropanol/chloroform was added followed by vortexing. […] The bottom organic layer was removed and assayed for fluorescence intensity at 500 nm as the excitation wavelength (2.5 nm bandpass) and 550 nm as an emission wavelength (10 nm bandpass) and using an absorbance wavelength of 480 nm.

[3] = Idarubicin retention in liposomes in blood after intravenous injection; assay type: in vivo, Balb/c mice; details: cholesterol-free DSPC/DSPE-PEG2000 (95:5); 300 mM citrate (>500 mOsm/kg) in relation to 100 and 150 mM (<500 mOsm/kg); i.v.; 0.5-24 h
Experimental: DSPC/DSPE-PEG2000 (95:5 mole ratio) liposomes containing the non-exchangeable marker ^3H-CHE were prepared as described in Example 1, except that lipid films were hydrated with 100, 150, 200, 250 or 300 mM citrate, pH 4.0 (corresponding to osmolarity levels of about 200, 300, 400, 500 or 600 mOsm/kg, respectively).
DSPC/DSPE-PEG2000 (95:5 mole ratio) liposomes prepared with 100, 150 and 300 mM citrate were also loaded with idarubicin at a drug to lipid mole ratio of 0.25:1. Loading was facilitated by incubating the drug and liposomes at 37° C. for 60 minutes. Liposomes were administered to Balb/c mice as indicated and blood samples were removed by cardiac puncture at 0.5, 1, 2, 4 and 24-hours post administration (3 mice per time point). Idarubicin concentration was quantitated using fluorescence intensity at 485 nm as the excitation wavelength and 535 nm as an emission wavelength and using an absorbance wavelength of 482 nm.

[4] = Vincristine retention in liposomes in blood after intravenous injection of Balb/c mice; assay type: in vivo; details: i.v., 1, 4, 24 h
Experimental: Solutions of lipids in chloroform were combined to give a 95:5 molar ratio of DSPC/DSPE-PEG2000 or a 55:45 molar ratio of DSPC/Cholesterol, with trace amounts of ^14C-cholesteryl hexadecyl ether (^14C-CHE). The resulting mixtures were dried under a stream of nitrogen gas and placed in a vacuum pump overnight. The samples were hydrated at 70° C. with either 300 mM citrate, pH 4.0 (about 600 milliosmoles/kg (mOsm/kg)) or 150 mM citrate buffer, pH 4.0 (about 300 mOsm/kg) and passed through an extrusion apparatus (Northern Lipids Inc., Vancouver, BC) ten times with two 100 nm pore size polycarbonate filters at 70° C. Average liposome size was determined by quasi-elastic light scattering using a NICOMP 370 submicron particle sizer operating at a wavelength of 632.8 nm. The resulting liposomes were applied to a Sephadex G50 column equilibrated with HBS (20 mM HEPES, 150 mM NaCl, about 320 mOsm/kg), pH 7.45 to exchange the external liposomal buffer. […]
Vincristine-containing liposomes were administered intravenously to Balb/c mice at a lipid dose of 165 μmoles/kg in a final volume of 200 μL immediately after preparation (within 1-2 hrs). […] Lipid and vincristine levels were quantified by liquid scintillation counting and the values were reported as the mean±standard deviation (SD).

[5] = Freeze/thaw stability of DSPC/DSPG liposomes (drug-to-lipid ratio and size) at -20 or -70 C for 24 hours; assay type: physicochemical; details: 0-20 mole % cholesterol, 250 mM CuSO4 internal, frozen at -20 C and -70 C for 24 hours
Experimental: FUDR and irinotecan were loaded into cholesterol-free liposomes containing a low osmolarity internal solution and drug retention and liposome size were measured prior to and after freezing. DSPC/DSPG liposomes containing 0-20 mole % cholesterol, 20 mole % DSPG and passively entrapped FUDR were prepared as described previously and hydrated in 250 mM CuSO4 (<500 mOsm/kg). The MLVs were extruded at 70° C. as detailed above and buffered exchanged into saline and then into 300 mM sucrose, 20 mM Hepes, 30 mM EDTA (SHE), pH 7.4 using a hand-held tangential flow column. The sample was then further exchanged into 300 mM sucrose, 20 mM Hepes, pH 7.4 to remove residual EDTA. The liposomes were subsequently loaded with irinotecan at a drug-to-lipid mole ratio of 0.1:1 by mixing the two solutions at 50° C. for five minutes. The dual-loaded liposomes were then buffered exchanged into HBS using tangential flow to remove any unencapsulated drug.
The influence of freezing on liposome stability was determined by freezing the liposomes at either −20° C. or −70° C. for 24 hours. […] Lipid and FUDR levels were quantified using liquid scintillation and absorbance at 370 nm was used to determine irinotecan concentration. Particle sizing of the liposomes was also determined prior to and after freezing using quasi-elastic light scattering.

retention of daunorubicin (percent initial drug-to-lipid ratio in the blood) [1]: optimal retention
daunorubicin retention (percent initial daunorubicin-to-lipid ratio remaining in the blood) [2]: compromised
SMILES: COc1cccc2c1C(=O)c1c(O)c3c(c(O)c1C2=O)C[C@@](O)(C(C)=O)C[C@@H]3O[C@H]1C[C@H](N)[C@H](O)[C@H](C)O1 [daunorubicin]

idarubicin retention (idarubicin-to-lipid mole ratio in the blood) [3]: significantly decreased
SMILES: CC(=O)[C@]1(O)Cc2c(O)c3c(c(O)c2[C@@H](O[C@H]2C[C@H](N)[C@H](O)[C@H](C)O2)C1)C(=O)c1ccccc1C3=O [idarubicin]

retention of vincristine (percent initial vincristine-to-lipid weight ratio in the blood) ([4]; low-cholesterol liposomes DSPC/DSPE-PEG2000 (95:5), internal citrate 300 mOsm/kg (150 mM) compared to 600 mOsm/kg (300 mM)): significantly enhanced
SMILES: CC[C@]1(O)C[C@H]2CN(CCc3c([nH]c4ccccc34)[C@@](C(=O)OC)(c3cc4c(cc3OC)N(C=O)[C@H]3[C@@](O)(C(=O)OC)[C@H](OC(C)=O)[C@]5(CC)C=CCN6CC[C@]43[C@@H]65)C2)C1 [vincristine]
retention of vincristine (percent initial vincristine-to-lipid weight ratio in the blood) ([4]; cholesterol containing liposomes DSPC/cholesterol (55:45), 150 vs 300 mM citrate): independent of the osmolarity of the intraliposomal solution

retention of irinotecan after freezing (drug-to-lipid ratio) [5]: effectively retained
SMILES: CCc1c2c(nc3ccc(OC(=O)N4CCC(N5CCCCC5)CC4)cc13)-c1cc3c(c(=O)n1C2)COC(=O)[C@]3(O)CC [irinotecan]
